Paper PMC3923439, “Anti-inflammatory properties of a novel peptide interleukin 1 receptor antagonist” (Journal of Neuroinflammation, 2014)
Positions of bridges follow the written chain, without caps; N, C: chain ends. Chains are numbered I, II in the order given. No end group written: not given here.

Experiments:
AMJ2-C8 macrophages = experiment: TNF-α secretion from IL-1β-activated macrophages (L929 bioassay); assay type: cell-based, mouse; conditions: 1.2 pM IL-1β, 24 hours; TNF-α by L929 survival with actinomycin D; hydrocortisone at 100 μM
Procedure: A murine alveolar macrophage cell line, AMJ2-C8 (American Type Culture Collection, Borås, Sweden), was routinely grown at 37°C with 5% CO2 in DMEM supplemented with 5% (vol/vol) FCS, 0.5% (v/v) 2-[4-(2-hydroxyethyl)piperazin-1-yl]ethanesulfonic acid (HEPES) (Gibco BRL), 2 mM GlutaMAX, 100 U/ml penicillin and 100 μg/ml streptomycin.
AMJ2-C8 macrophages were seeded into six-well multidishes at a density of 2.5 × 10^5 cells/well, and sIL-1RI, IL-1Ra or various concentrations of Ilantide were added to the cultures. Treatment with 100 μM hydrocortisone (Sigma-Aldrich, Brøndby, Denmark) was used as a positive control. After 10-minute incubation at 37°C, 1.2 pM IL-1β or IFN-γ (R&D Systems) was added to activate the macrophages. L929 cells were seeded onto a 96-well plate (Nunc, Roskilde, Denmark) at a density 0.2 × 10^2 cells/ml. Both cell cultures were incubated for 24 hours at 37°C. Conditioned medium from macrophages was collected and added to the L929 cell cultures together with actinomycin D (0.6 μg/well; Sigma-Aldrich). TNF-α is known to induce classic apoptosis in L929 cells in the presence of actinomycin D [12]. After 24-hour incubation at 37°C, 20 μl of 3-(4,5-dimethylthiazol-2-yl)-5-(3-carboxymethoxyphenyl)-2-(4-sulfophenyl)-2H-tetrazolium (Promega, Madison, WI, USA) were added to each well and incubated at 37°C in the dark for 45 minutes, then measured in an ELISA reader at 490 nm. To calculate the amount of TNF-α in the conditioned medium, fibroblasts were treated with standard concentrations of TNF-α (R&D Systems).

[1] = test system: Cerebellar granule neurons; experiment: Survival of cerebellar granule neurons induced to undergo apoptosis by low potassium; assay type: cell-based, rat; conditions: 5 mM KCl, survival estimated 48 hours later
Procedure: (§1) Cerebellar granule neurons (CGNs) were prepared from 7-day-old Wistar rats (from Charles River Laboratories, Sulzfeld, Germany; or from Hygind Møllegård Erik Møllegaard Hansen, Ejby, Denmark) as previously described. Briefly, the cerebella were cleared of meninges and blood vessels, roughly homogenized by chopping and trypsinized. The cells were washed in the presence of DNAse I and soybean trypsin inhibitor (Sigma-Aldrich, St Louis, MO, USA), and cellular debris was pelleted by centrifugation. The fibroblastoid mouse cell line L929 (LVN; European Collection of Cell Cultures, Porton Down, UK) was routinely grown at 37°C with 5% CO2 in DMEM supplemented with 10% (vol/vol) FCS, 2 mM GlutaMAX, 100 U/ml penicillin and 100 μg/ml streptomycin.
(§2) Cerebellar granule neurons were plated at a density of 1 × 10^5 cells/cm^2 on poly-L-lysine-coated, eight-well Permanox Lab-Tek chamber slides (Nunc) in Neurobasal-A medium supplemented with 2% (vol/vol) B27 (Gibco BRL), 0.5% (vol/vol) GlutaMAX, 100 U/ml penicillin and 100 μg/ml streptomycin. The CGN survival assay was performed as previously described. The neurite outgrowth assay was also performed as previously described.
Figure 5 Effect of Ilantide and interleukin 1 receptor antagonist on survival of cerebellar granule neurons induced to undergo apoptosis. The neurons were allowed to differentiate for 7 days in a high-potassium (40 mM) medium before apoptosis was induced by changing to a low-potassium medium (5 mM). Survival was estimated 48 hours later. (A) The effect of insulin-like growth factor 1 (IGF-1), interleukin 1 receptor antagonist (IL-1Ra) and IL-1β on cerebellar granule neuron (CGN) apoptosis induced by 5 mM KCl. (B) The effect of Ilantide-m on CGN apoptosis induced by 5 mM KCl. […] The results from at least four independent experiments are expressed as mean ± SEM with untreated cultures induced to undergo apoptosis by 5 mM KCl set at 100%. *P < 0.05 and **P < 0.01 compared with untreated cultures induced to undergo apoptosis (one-way analysis of variance followed by Newman-Keuls post hoc test).

[2] = test system: Cerebellar granule neurons; experiment: Neurite outgrowth from cerebellar granule neurons; assay type: cell-based, rat; conditions: 7-day-old CGNs grown on fibroblast cells, 24 hours
Procedure: as §1, §2
Figure 6 Effect of Ilantide on neurite outgrowth from cerebellar granule neurons. Cerebellar granule neuron cultures were treated with interleukin 1 receptor antagonist (IL-1Ra) (A), soluble interleukin 1 receptor type I (sIL-1RI) (B), Ilantide-t (C) or IL-1β (D) for 24 hours. The cultures were fixed and immunostained with rabbit anti-rat growth-associated protein 43 (anti-GAP-43) primary antibodies and then with secondary Alexa Fluor 488 goat anti-rabbit antibodies. (E) Effect of IL-1β on neurite outgrowth induced by IL-1Ra. (F) Effect of IL-1β on neurite outgrowth induced by Ilantide-t. The results from three to four independent experiments are expressed as percentage ± SEM with untreated controls set at 100%, corresponding to an average neurite length of 19.3 ± 4.1 μm. *P < 0.05 and **P < 0.01 compared with untreated controls (A to D) or cultures treated with either IL-1Ra or Ilantide alone (E and F) by one-way analysis of variance followed by the Newman-Keuls post hoc test).

| Substance | Inhibition of IL-1β-induced TNF-α secretion in macrophages (AMJ2-C8 macrophages) | CGN survival after potassium withdrawal [1] | Neurite outgrowth from CGNs [2] |
| --- | --- | --- | --- |
| I: SGRKSSKMQAKK-NH2 / II: SGRKSSKMQAK / III: SGRKSSKMQA / IV: SGRKSSKMQA (amide I:11-IV:C, I:12-II:C, II:11-III:C; C-terminus assumed) [Ilantide-t] | significantly inhibited | concentration-dependently promoted CGN survival | significantly induced neurite outgrowth |
| IL-1Ra: recombinant interleukin 1 receptor antagonist purchased from R&D Systems | significantly inhibited | concentration-dependently promoted CGN survival | significantly induced neurite outgrowth |
